According to patent US7897591B2, “Method of treating fatty liver disease” (priority 2005, dated 2011):

Key:
C57BL/6 mice = assay: Fatty acid analysis of serum and liver lipids (triglycerides, phospholipids) in HCD mouse model; format: in vivo
Experimental: Experiments were performed on 5-6 week-old C57BL/6 mice (Jackson Laboratories, Bar Harbor, Me.). The animals, in groups of five, were housed in a barrier room and were acclimated to their environment for at least 72 hours prior to the initiation of each experiment. Animal protocols complied with the NIH Animal Research Advisory Committee guidelines and were approved by the Children's Hospital Boston Animal Care and Use Committee. Control animals (n=5) received normal chow and water ad libitum. All animals in the experimental groups were fed a fat-free, high carbohydrate liquid diet (HCD) ad libitum placed in one bottle per cage as previously described (3, 62). No additional sources of nutrition or hydration were provided. The HCD liquid solution contained 20% dextrose, a commercial mixture of 2% essential and nonessential amino acids (TrophAmine, B. Braun Medical, Irvine, Calif.), 2 ml trace elements (Trace Elements Injection 4, USP—Pediatric, American Regent Shirley, N.Y.), and 5 ml multivitamins (M.V.I. Pediatric™, Mayne Pharma, Paramus, N.J.). Each liter of HCD contained 30 meq sodium, 20 meq potassium chloride, 15 meq calcium, 10 meq magnesium, and 10 mM phosphate. The bottles were replaced daily with fresh HCD solution. HCD animals (n=5) received HCD only and no additional treatment for 19 days. The HCD+MAR animals (n=15) additionally received 100 mg/kg of Marimastat™ in 0.45% methylcellulose (Sigma-Aldrich Corporation, St. Louis, Mo.) vehicle twice daily via orogastric gavage. The animals were individually weighed every third day and at sacrifice. Fatty acid analysis was conducted as described previously (1, 2, 31). Briefly, lipids were extracted from serum and livers, and then fractionated into triglycerides and phospholipids by solid phase chromatography using an aminopropyl column. After appropriate processing, samples were injected into a Hewlett Packard 5890A gas chromatograph for analysis.

PPAR-α = assay: Western blot densitometry of liver PPAR-α; format: in vivo, mouse; conditions: HCD+MAR mice; nuclear + cytosolic summed; mean±SEM; P<0.02 vs HCD-only (11.5±4.4)
Experimental: (§1) Control animals (n=5) received normal chow and water ad libitum. All animals in the experimental groups were fed a fat-free, high carbohydrate liquid diet (HCD) ad libitum placed in one bottle per cage as previously described (3, 62). No additional sources of nutrition or hydration were provided. The HCD liquid solution contained 20% dextrose, a commercial mixture of 2% essential and nonessential amino acids (TrophAmine, B. Braun Medical, Irvine, Calif.), 2 ml trace elements (Trace Elements Injection 4, USP—Pediatric, American Regent Shirley, N.Y.), and 5 ml multivitamins (M.V.I. Pediatric™, Mayne Pharma, Paramus, N.J.). Each liter of HCD contained 30 meq sodium, 20 meq potassium chloride, 15 meq calcium, 10 meq magnesium, and 10 mM phosphate. The bottles were replaced daily with fresh HCD solution. HCD animals (n=5) received HCD only and no additional treatment for 19 days. The HCD+MAR animals (n=15) additionally received 100 mg/kg of Marimastat™ in 0.45% methylcellulose (Sigma-Aldrich Corporation, St. Louis, Mo.) vehicle twice daily via orogastric gavage. The animals were individually weighed every third day and at sacrifice. […] The assay was read at 595 nm and analyzed with Softmax® PRO Software (Molecular Devices Corporation, Sunnyvale, Calif.). 30 ug of protein per sample were analyzed by SDS-PAGE. […]

SREBP-1c = assay: Western blot of liver SREBP-1c; format: in vivo, mouse; conditions: across the treatment groups
Experimental: as §1

SMILES: CNC(=O)[C@@H](NC(=O)[C@H](CC(C)C)[C@H](O)C(=O)NO)C(C)(C)C [Marimastat]
- hepatic triglyceride level (C57BL/6 mice; HCD+MAR vs HCD, remained higher than in controls): significantly reduced
- serum triglyceride and phospholipids (C57BL/6 mice; HCD+MAR, reduced in HCD-only compared to control): normalized
- hepatic phospholipids (C57BL/6 mice; among the three groups): no significant differences
- PPAR-α level, Western blot densitometry (PPAR-α): 151.7±3.4
- SREBP-1c protein level (SREBP-1c): unchanged
